Source: ChEMBL document CHEMBL1201862, “PubChem BioAssay data set” (2004)
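Method: 48-hour compound exposure of cells in 96-well plates, five concentrations, linear interpolation of endpoints. Here, GI50 denotes the concentration required for 50% inhibition of growth.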 Activity calls are given as the source filed them. Rule as the data show it: active = GI50 up to about 1.1 µM and inactive = higher.

What was measured:
Experiment in all cases: NCI tumour cell line growth inhibition, 48 h
A549 = system: A549
DU-145 = system: DU-145
HCT-116 = system: HCT-116
HCT-15 = system: HCT-15
MDA-MB-231 = system: MDA-MB-231
MDA-MB-435 = system: MDA-MB-435
NCI-H460 = system: NCI-H460
OVCAR-8 = system: OVCAR-8
PC-3 = system: PC-3
RPMI-8226 = system: RPMI-8226
SF-268 = system: SF-268
SK-MEL-5 = system: SK-MEL-5
SN12C = system: SN12C
SNB-19 = system: SNB-19
SR = system: SR
T47D = system: T47D
UACC-257 = system: UACC-257
UO-31 = system: UO-31
OVCAR-4 = system: OVCAR-4
TK-10 = system: TK-10

SMILES	GI50 (A549)	GI50 (DU-145)	GI50 (HCT-116)	GI50 (HCT-15) [µM]	GI50 (MDA-MB-231)	GI50 (MDA-MB-435)	GI50 (NCI-H460)	GI50 (OVCAR-8)	GI50 (PC-3)	GI50 (RPMI-8226)	GI50 (SF-268)	GI50 (SK-MEL-5)	GI50 (SN12C)	GI50 (SNB-19)	GI50 (SR)	GI50 (T47D)	GI50 (UACC-257)	GI50 (UO-31)	GI50 (OVCAR-4)	GI50 (TK-10)
CO/N=C(/C)c1cccc(Nc2nc3ccc(Cl)cc3c3[nH]c4ccccc4c23)c1	12.8 µM (inactive)	12.2 µM (inactive)	4.21 µM (inactive)	9.73	13.4 µM (inactive)	8.57 µM (inactive)	4.31 µM (inactive)	8 µM (inactive)	14 µM (inactive)	3.2 µM (inactive)	13 µM (inactive)	3.2 µM (inactive)	11 µM (inactive)	15 µM (inactive)	4.72 µM (inactive)	2.47 µM (inactive)	14.5 µM (inactive)	9.46 µM (inactive)	–	–
CC1(C)C=[N+]([O-])C(C)(C)N1O	> 10 µM (inactive)	> 10 µM (inactive)	> 10 µM (inactive)	> 10	> 10 µM (inactive)	> 10 µM (inactive)	> 10 µM (inactive)	> 10 µM (inactive)	> 10 µM (inactive)	> 10 µM (inactive)	> 10 µM (inactive)	–	> 10 µM (inactive)	> 10 µM (inactive)	> 10 µM (inactive)	> 10 µM (inactive)	> 10 µM (inactive)	> 10 µM (inactive)	> 10 µM (inactive)	> 10 µM (inactive)
COc1ccc(-c2cc(-c3ccc(Nc4ccnc5cc(Cl)ccc45)cc3)nc(N)c2C#N)cc1	> 100 µM (inactive)	> 100 µM (inactive)	> 100 µM (inactive)	> 100	> 100 µM (inactive)	> 100 µM (inactive)	> 100 µM (inactive)	> 100 µM (inactive)	> 100 µM (inactive)	> 100 µM (inactive)	> 100 µM (inactive)	–	–	> 100 µM (inactive)	> 100 µM (inactive)	> 100 µM (inactive)	–	27.4 µM (inactive)	> 100 µM (inactive)	> 100 µM (inactive)
O=C1CC(c2ccc(Cl)cc2)Oc2ccccc21 (stereo unspecified)	–	69 µM (inactive)	37.3 µM (inactive)	17	28.2 µM (inactive)	36.8 µM (inactive)	19.8 µM (inactive)	37.2 µM (inactive)	20.2 µM (inactive)	3.96 µM (inactive)	28.4 µM (inactive)	14 µM (inactive)	–	26.8 µM (inactive)	8.36 µM (inactive)	32 µM (inactive)	40.3 µM (inactive)	18.1 µM (inactive)	43.4 µM (inactive)	27.4 µM (inactive)
O/N=C1/CC2(N3CCOCC3)C3CC/C(=N\O)C2CC1(Cc1ccccc1)C3 (stereo unspecified)	> 100 µM (inactive)	> 100 µM (inactive)	44.5 µM (inactive)	> 100	> 100 µM (inactive)	> 100 µM (inactive)	> 100 µM (inactive)	> 100 µM (inactive)	> 100 µM (inactive)	–	> 100 µM (inactive)	44.4 µM (inactive)	> 100 µM (inactive)	> 100 µM (inactive)	> 100 µM (inactive)	67 µM (inactive)	66.8 µM (inactive)	> 100 µM (inactive)	> 100 µM (inactive)	–
CC1=NN=C(N)N/C1=C/C(Sc1ccc(Cl)cc1)c1cccs1 (stereo unspecified)	10.3 µM (inactive)	23.1 µM (inactive)	13.6 µM (inactive)	6.12	> 10 µM (inactive)	13.3 µM (inactive)	13.6 µM (inactive)	16 µM (inactive)	12.8 µM (inactive)	12.2 µM (inactive)	10.6 µM (inactive)	11.5 µM (inactive)	26.8 µM (inactive)	16.7 µM (inactive)	–	22 µM (inactive)	18.3 µM (inactive)	4.45 µM (inactive)	16.5 µM (inactive)	36.2 µM (inactive)
Cc1cc(C)n(C(=CC(=O)C(Cl)Cl)n2nc(C)cc2C)n1	21.7 µM (inactive)	5.38 µM (inactive)	1.76 µM (inactive)	2.73	2.38 µM (inactive)	2.52 µM (inactive)	6.97 µM (inactive)	2.25 µM (inactive)	11.4 µM (inactive)	0.871 µM (active)	6.38 µM (inactive)	5.98 µM (inactive)	–	10.7 µM (inactive)	1.61 µM (inactive)	4.06 µM (inactive)	1.32 µM (inactive)	4.71 µM (inactive)	> 100 µM (inactive)	3.18 µM (inactive)
O=C1CC(Br)c2c(Br)sc(Br)c21 (stereo unspecified)	29.1 µM (inactive)	20.7 µM (inactive)	13.6 µM (inactive)	16.9	18.9 µM (inactive)	20 µM (inactive)	17.3 µM (inactive)	16.1 µM (inactive)	19.1 µM (inactive)	8.04 µM (inactive)	23.9 µM (inactive)	19.8 µM (inactive)	15.6 µM (inactive)	27.7 µM (inactive)	–	17.6 µM (inactive)	15.7 µM (inactive)	16.4 µM (inactive)	17.3 µM (inactive)	18.5 µM (inactive)
O=c1c(C(c2cccc(C(c3c(O)oc4ccccc4c3=O)c3c(O)oc4ccccc4c3=O)c2)c2c(O)oc3ccccc3c2=O)c(O)oc2ccccc12	60.3 µM (inactive)	39.4 µM (inactive)	25.1 µM (inactive)	63.8	20.8 µM (inactive)	86.9 µM (inactive)	75.2 µM (inactive)	21.1 µM (inactive)	37.9 µM (inactive)	33.2 µM (inactive)	28.4 µM (inactive)	13.2 µM (inactive)	22.1 µM (inactive)	–	28.4 µM (inactive)	24.3 µM (inactive)	69 µM (inactive)	–	–	> 100 µM (inactive)
O=c1[nH]c(NCc2ccncc2)nc2[nH]cnc12	> 100 µM (inactive)	> 100 µM (inactive)	> 100 µM (inactive)	> 100	> 100 µM (inactive)	> 100 µM (inactive)	> 100 µM (inactive)	> 100 µM (inactive)	> 100 µM (inactive)	> 100 µM (inactive)	> 100 µM (inactive)	> 100 µM (inactive)	> 100 µM (inactive)	> 100 µM (inactive)	–	> 100 µM (inactive)	> 100 µM (inactive)	> 100 µM (inactive)	> 100 µM (inactive)	> 100 µM (inactive)
CCn1c(=O)c2c3ccc(O)cc3[nH]c2c2ccc(O)cc21	> 100 µM (inactive)	> 100 µM (inactive)	45.4 µM (inactive)	> 100	64.4 µM (inactive)	61 µM (inactive)	–	> 100 µM (inactive)	> 100 µM (inactive)	–	> 100 µM (inactive)	30.9 µM (inactive)	81.5 µM (inactive)	> 100 µM (inactive)	55.6 µM (inactive)	51.2 µM (inactive)	> 100 µM (inactive)	> 100 µM (inactive)	> 100 µM (inactive)	> 100 µM (inactive)
